Measured values reported in ChEMBL document CHEMBL1201862, “PubChem BioAssay data set” (2004).
Calls of active or inactive are those of the source.

Assays:
[1] = fluconazole-exposed Candida albicans growth modulators – fluorescence, retest, confirmation (AID 2467); format: functional, cell-based
[2] = NIH-3T3 fibroblast cytotoxicity, dose response, cytotoxicity control, cell-based, fluorescence, Alamar Blue, secondary assay (AID 2327); format: functional;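 further: NIH-3T3 mouse fibroblasts cultured with fluconazole at 8 µg/mL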
[3] = biological target: T1, Corticotropin-releasing factor receptor 2/Corticotropin-releasing factor-binding protein (Homo sapiens, UniProt P24387+Q13324); assay: activators of CRF receptor 2 with binding protein – uHTS hits, confirmation (AID 602473); format: functional; conditions: read-out: EC50_Mean
T1 sequence (Q13324 whole entry): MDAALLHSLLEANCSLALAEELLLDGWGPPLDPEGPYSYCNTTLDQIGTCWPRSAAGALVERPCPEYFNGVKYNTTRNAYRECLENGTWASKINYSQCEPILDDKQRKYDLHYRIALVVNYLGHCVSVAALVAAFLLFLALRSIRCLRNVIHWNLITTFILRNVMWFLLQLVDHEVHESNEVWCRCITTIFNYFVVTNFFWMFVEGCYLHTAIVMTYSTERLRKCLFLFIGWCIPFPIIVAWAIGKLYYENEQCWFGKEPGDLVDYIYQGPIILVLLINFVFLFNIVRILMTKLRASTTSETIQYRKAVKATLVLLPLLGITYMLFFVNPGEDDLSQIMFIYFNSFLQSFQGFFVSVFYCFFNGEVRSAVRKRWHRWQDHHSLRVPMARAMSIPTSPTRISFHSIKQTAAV
T1 sequence (P24387 whole entry): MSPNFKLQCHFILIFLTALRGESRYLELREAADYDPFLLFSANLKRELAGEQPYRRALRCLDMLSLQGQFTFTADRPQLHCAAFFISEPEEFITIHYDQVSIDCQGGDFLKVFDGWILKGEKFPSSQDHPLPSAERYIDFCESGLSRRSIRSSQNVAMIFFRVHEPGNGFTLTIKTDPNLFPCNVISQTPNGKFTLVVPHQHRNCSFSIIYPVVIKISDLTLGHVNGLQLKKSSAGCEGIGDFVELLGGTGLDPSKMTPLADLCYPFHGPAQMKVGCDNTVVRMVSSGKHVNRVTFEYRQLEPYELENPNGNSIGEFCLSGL

[4] = Luminescence Cell-Based Dose Response HTS to Identify Inhibitors of 5'UTR Stem-Loop Driven Prion Protein mRNA Translation in H4 Neuroglioblastoma Cells. [Related pubchem assays: 1827 (Project Summary), 1813 (Primary HTS)]; format: functional
[5] = Trypanosoma cruzi growth suppression in host cells – NIH3T3 host cells, beta-gal luminescence, confirmation (AID 2044); format: functional, cell-based;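 further: intracellular parasites grown in NIH/3T3 mouse fibroblasts as host cells; luminescent beta-galactosidase reporter signal from transgenic T. cruzi replicating inside host cells; inhibitors lower the luminescence signal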
[6] = luciferase reporter signal suppression in cells – H4 neuroglioma cells, luminescence, dose response (AID 1990); format: functional, cell-based
[7] = microbe, parasite or virus in culture; format: functional; conditions: Mycobacterium tuberculosis
[8] = Luminescence Cell-Based Dose Retest to Confirm Inhibitors of Cancer Stem Cells. [Related pubchem assays (depositor defined):AID2717, AID2721]; format: functional; conditions: Homo sapiens
[9] = NIH3T3 cell viability loss – ATP luminescence, mouse fibroblasts, counter-screen, dose response (AID 2010); format: functional, cell-based;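 further: cells exposed to compound for about 90 hours before reading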
[10] = alpha-synuclein stem-loop luciferase translation blockers – H4 neuroglioma cells, luminescence, confirmation (AID 1988); format: functional, cell-based
[11] = viability of uninfected HEp-2 cells – cell-based, HTS, cytotoxicity control for RSV inhibitor project, dose response (AID 2410); format: functional; conditions: human respiratory syncytial virus
[12] = biological target: T2, Heat shock factor protein 1 (Mus musculus, UniProt P38532); assay: enhancement of HSF1-driven luciferase signal – cell-based, NIH3T3, luminescence, dose retest, confirmation (AID 435004); format: functional;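 further: stress induced by proteasome inhibitor MG132 added 30 min after compound; luciferase reporter driven by HSF1 response element in NIH3T3 cells; actives raise luminescence as potentiators of the MG132 stress response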
T2 sequence (P38532 whole entry): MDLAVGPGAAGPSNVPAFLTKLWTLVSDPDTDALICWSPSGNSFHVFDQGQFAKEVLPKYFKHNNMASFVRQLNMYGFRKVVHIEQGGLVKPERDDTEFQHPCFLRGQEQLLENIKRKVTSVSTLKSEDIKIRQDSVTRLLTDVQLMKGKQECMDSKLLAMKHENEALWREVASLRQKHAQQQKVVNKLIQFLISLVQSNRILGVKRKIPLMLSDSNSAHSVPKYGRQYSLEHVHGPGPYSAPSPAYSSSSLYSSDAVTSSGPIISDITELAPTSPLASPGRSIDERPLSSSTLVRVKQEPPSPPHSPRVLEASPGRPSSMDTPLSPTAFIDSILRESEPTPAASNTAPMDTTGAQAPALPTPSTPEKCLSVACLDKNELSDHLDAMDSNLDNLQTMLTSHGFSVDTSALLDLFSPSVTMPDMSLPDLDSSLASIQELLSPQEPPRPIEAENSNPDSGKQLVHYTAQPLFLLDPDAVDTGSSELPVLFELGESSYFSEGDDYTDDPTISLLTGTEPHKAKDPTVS

INS1 = assay: INS-1E survival protection against cytokine death – cell-based, luminescence, retest, dose response (AID 449756); format: functional; conditions: Rattus norvegicus;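 further: cell death triggered by IL-1 beta plus TNF-alpha plus IFN-gamma mixture; protective hits raise ATP signal compared with cytokine alone wells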
[13] = biological target: T3, Replicative DNA helicase DnaB (Mycobacterium tuberculosis, UniProt P9WMR3); assay: DnaB intein splicing inhibitors, dose response, biochemical, cell-free fluorescence (AID 449749); format: functional
T3 sequence (P9WMR3 whole entry): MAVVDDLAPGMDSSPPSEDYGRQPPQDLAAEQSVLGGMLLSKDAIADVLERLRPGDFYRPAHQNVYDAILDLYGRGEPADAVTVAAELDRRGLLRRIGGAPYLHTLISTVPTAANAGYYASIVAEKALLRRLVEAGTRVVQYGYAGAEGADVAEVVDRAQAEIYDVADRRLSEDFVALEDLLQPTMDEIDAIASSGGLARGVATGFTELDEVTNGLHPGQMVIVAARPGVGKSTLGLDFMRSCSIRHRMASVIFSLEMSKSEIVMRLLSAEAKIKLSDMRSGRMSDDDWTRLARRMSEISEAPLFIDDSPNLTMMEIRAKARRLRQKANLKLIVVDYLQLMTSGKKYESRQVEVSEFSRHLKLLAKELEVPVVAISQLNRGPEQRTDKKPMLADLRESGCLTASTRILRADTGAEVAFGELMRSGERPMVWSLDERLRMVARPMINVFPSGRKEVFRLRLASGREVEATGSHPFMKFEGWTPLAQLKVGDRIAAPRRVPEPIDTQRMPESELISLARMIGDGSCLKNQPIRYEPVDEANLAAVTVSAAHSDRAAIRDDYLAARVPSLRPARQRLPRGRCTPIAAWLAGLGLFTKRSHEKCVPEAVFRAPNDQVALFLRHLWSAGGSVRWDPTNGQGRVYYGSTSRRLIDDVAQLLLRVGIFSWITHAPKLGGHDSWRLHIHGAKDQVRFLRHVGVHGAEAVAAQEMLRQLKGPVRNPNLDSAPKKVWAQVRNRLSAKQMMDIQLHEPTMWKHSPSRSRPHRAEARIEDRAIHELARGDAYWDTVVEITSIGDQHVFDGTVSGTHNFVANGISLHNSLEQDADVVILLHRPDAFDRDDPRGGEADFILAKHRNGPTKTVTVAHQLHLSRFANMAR

Protein RecA = biological target: T4, Protein RecA (Mycobacterium tuberculosis, UniProt P9WHJ3); assay: Fluorescence Cell-Free Homogeneous Dose Retest to Identify Inhibitors of RecA-Intein Splicing Activity. [Related pubchem assays (depositor defined):AID2097, AID2223, AID489010, AID492950]; format: functional
T4 sequence (P9WHJ3 whole entry): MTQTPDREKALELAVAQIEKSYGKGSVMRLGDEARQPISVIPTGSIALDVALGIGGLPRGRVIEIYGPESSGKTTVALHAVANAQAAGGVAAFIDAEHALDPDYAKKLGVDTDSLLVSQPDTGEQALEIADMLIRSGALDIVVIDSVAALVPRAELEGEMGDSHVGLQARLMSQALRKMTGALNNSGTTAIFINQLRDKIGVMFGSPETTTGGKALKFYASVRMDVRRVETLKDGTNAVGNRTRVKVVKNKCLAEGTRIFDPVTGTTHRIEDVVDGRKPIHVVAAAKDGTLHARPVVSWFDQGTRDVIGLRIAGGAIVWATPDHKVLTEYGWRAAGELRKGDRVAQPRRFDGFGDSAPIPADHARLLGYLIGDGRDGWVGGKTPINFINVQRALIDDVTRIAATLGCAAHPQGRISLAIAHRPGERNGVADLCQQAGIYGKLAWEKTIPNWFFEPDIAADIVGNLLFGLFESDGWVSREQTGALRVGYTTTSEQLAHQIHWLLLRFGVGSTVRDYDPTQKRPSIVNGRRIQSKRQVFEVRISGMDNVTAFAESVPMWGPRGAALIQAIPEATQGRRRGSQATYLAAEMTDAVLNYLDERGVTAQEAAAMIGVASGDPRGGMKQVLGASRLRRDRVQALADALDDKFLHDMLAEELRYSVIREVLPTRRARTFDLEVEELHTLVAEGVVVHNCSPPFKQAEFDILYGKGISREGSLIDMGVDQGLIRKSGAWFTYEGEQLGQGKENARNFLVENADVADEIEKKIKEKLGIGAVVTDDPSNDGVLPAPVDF

[14] = Luminescence Cell-Based Dose Confirmation HTS to Identify Inhibitors of Platelet Dense Granule Release. [Related pubchem assays: 1663 (Primary HTS), 1678 (Summary of Project)]; format: functional
[15] = biological target: Luciferin 4-monooxygenase (Photinus pyralis, UniProt P08659); assay: inhibition of purified Photinus pyralis luciferase – biochemical, luminescence, dose response (AID 1891)
[16] = biological target: T5, Rac GTPase-activating protein 1 (Homo sapiens, UniProt Q9H0H5); assay: blockers of MgcRacGAP-driven Rac1 GTP hydrolysis – biochemical, ADP Hunter fluorescence, primary and confirmatory, confirmation (AID 624330); format: functional
T5 sequence (Q9H0H5 whole entry): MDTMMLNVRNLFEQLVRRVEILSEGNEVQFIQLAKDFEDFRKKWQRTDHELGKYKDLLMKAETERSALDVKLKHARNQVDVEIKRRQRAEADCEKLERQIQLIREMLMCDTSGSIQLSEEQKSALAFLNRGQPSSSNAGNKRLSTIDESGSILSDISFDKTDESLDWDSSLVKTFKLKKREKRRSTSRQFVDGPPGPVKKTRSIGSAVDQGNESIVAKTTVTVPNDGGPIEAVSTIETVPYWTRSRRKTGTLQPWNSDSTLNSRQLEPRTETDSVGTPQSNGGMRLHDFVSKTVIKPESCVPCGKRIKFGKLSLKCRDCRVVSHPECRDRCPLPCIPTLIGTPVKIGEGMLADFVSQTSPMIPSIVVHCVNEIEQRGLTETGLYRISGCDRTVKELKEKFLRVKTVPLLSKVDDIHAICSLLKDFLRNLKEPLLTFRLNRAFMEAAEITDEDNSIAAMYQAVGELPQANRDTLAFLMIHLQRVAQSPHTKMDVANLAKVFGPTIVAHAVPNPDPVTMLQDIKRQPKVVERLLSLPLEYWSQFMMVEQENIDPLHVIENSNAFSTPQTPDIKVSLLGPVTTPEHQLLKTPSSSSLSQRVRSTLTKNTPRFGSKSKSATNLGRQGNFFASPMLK

Sequence of Luciferin 4-monooxygenase (P08659 whole entry): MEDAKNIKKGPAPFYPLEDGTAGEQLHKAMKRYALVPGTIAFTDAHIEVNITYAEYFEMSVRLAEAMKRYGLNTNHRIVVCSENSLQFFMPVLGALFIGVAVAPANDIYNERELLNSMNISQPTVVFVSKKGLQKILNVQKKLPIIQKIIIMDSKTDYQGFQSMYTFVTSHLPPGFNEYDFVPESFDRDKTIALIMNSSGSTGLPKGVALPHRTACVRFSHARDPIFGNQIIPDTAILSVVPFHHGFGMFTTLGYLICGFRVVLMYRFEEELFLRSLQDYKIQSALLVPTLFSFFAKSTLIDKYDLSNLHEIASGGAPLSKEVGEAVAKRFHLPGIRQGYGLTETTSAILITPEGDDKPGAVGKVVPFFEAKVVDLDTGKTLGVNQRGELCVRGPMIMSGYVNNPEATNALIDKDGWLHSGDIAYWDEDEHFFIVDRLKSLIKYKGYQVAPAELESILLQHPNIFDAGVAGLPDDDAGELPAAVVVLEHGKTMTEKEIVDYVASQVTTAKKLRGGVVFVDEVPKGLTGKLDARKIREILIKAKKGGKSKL

Fc1ccc2c(c1)C(c1ccncc1)=NNC(c1cccnc1)=N2
EC50 [1]: 2.26 µM (active)
EC50 [2]: > 160 µM (inactive)

O=C1/C(=C/c2ccc(O)cc2)SC(=S)N1Cc1cccnc1
EC50 [3]: 12.9 µM (active)

Cc1ccc(-n2nc(C)c3c(C)c(CCC(=O)Nc4ccc(CN5CCCC5)cc4)c(C)nc32)cc1
EC50 [4]: > 120 µM (not active)
EC50 [5]: 1.76 µM (active)
EC50 [6]: 9.39 µM (active)
CC50 [7]: 8.7 µM (active)
AC50 [8]: 5.7 µM (active)
EC50 [9]: > 60 µM (not active)
EC50 [10]: 8.22 µM (active)

CCc1ccccc1N(CC)C(=O)C1CCN(c2ncnc3c2nc2n3CCCCC2)CC1
CC50 [11]: 17.2 µM (active)

CCOc1ccc(-n2c(SCc3cc(=O)oc4cc(C)c(C(C)C)cc34)nnc2-c2cccnc2)cc1
CC50 [11]: 17.5 µM (active)

CN=C(S)NNC(=O)c1ccc(N(C)C)cc1
CC50 [11]: > 50 µM (active)

Cc1nc2ccccc2cc1OCc1ccccc1
EC50 [1]: 3.26 µM (active)
EC50 [2]: > 160 µM (inactive)

O=S(=O)(c1ccccc1)N1CCCC(c2nc(O)c3nnn(Cc4ccccc4Br)c3n2)C1 (stereo unspecified)
CC50 [11]: 18.2 µM (active)

O=C(c1ccco1)c1coc2c1cc(O)c1ccccc12
EC50 [12]: 65.4 µM (active)
AC50 (INS1): 27 µM (active)
AC50 [13]: 16.2 µM (active)
EC50 (Protein RecA): 48.7 µM (active)

c1coc(CNc2c3c(nc4ncnn24)CCC3)c1
CC50 [11]: 40.5 µM (active)

Cn1c(=O)c(C(=O)COC(=O)c2cc(C(F)(F)F)nc3c(C(F)(F)F)cccc23)c(N)n(CC2CC2)c1=O
CC50 [7]: > 40 µM (active)

CCn1nc(C)c(C(=O)Nc2cc(Oc3cc(C)cc(C)c3)cc([N+](=O)[O-])c2)c1C
CC50 [7]: 22.7 µM (active)

COc1ccc(-c2oc3cccnc3c2C#CCO)cc1
CC50 [11]: > 50 µM (active)

Cc1ccccc1C(=O)NC(=S)Nc1sc2c(c1C#N)CCC(C)C2 (stereo unspecified)
CC50 [11]: 36.8 µM (active)

COC(=O)c1ccc(CSc2nc3ccccc3[nH]2)o1
CC50 [11]: > 50 µM (active)

Cc1[nH]c2ccccc2c1N=Nc1ccccc1F
CC50 [11]: 18 µM (active)

CC1=[N+]([O-])C(C)(C)N(O)C1(C)C
EC50 [14]: > 112 µM (not active)
EC50 [3]: > 53 µM (inactive)
EC50 [15]: > 112 µM (not active)

CC1(C)CC(=O)C2=C(C1)N=C(Nc1nc3ccccc3o1)NC2c1ccccn1 (stereo unspecified)
CC50 [7]: > 40 µM (active)

O=C(Oc1ccccc1-c1nnco1)c1ccc(Cl)cc1
CC50 [7]: 21.8 µM (active)

O=C1C=C(c2ccccc2)C(c2ccccc2)C1O (stereo unspecified)
EC50 [3]: > 53 µM (inactive)

CCN(CC)c1ccc(/N=C/c2ccccc2[N+](=O)[O-])cc1
IC50 [16]: 30.5 µM (active)
AC50 (INS1): 33.2 µM (active)

CCOc1ccc(NC(=O)CCC(=O)N/N=C/c2ccc3c(c2)OCO3)cc1
EC50 [1]: > 38 µM (not active)
EC50 [2]: > 150 µM (inactive)

Oc1c(/C=N/Cc2ccc(F)cc2)[nH]c2ccc(Br)c(Cl)c12
CC50 [11]: 29.1 µM (active)
AC50 [13]: 61.8 µM (active)
EC50 (Protein RecA): 2.44 µM (active)

CN(C)c1nc(NCc2ccccc2)nc(N/N=C/c2ccc3c(c2)OCO3)n1
CC50 [7]: > 40 µM (active)
